The results in this text go back to US11976083B2, “Inhibitors of peptidylarginine deiminases” (Gilead Sciences, Inc., priority 2020, dated 2024).

This assay concerns the target T1, human PAD4 (Homo sapiens, UniProt Q9UM07).
T1 construct: human PAD4 (NM_012387), A2-P663, was PCR amplified; His-SUMO (N, cleaved yes); made in house; host or cells: E. coli BL21(DE3)
The assay is described as follows: In vitro PAD4 BAEE biochemical assay. Particulars: BAEE substrate 3 mM, 5 nM PAD4, 2 mM calcium chloride; geometric mean of multiple experiments. The method, boiled down:
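Ammonia produced by BAEE deimination (3 mM substrate, 2 h, 25 °C) was read as fluorescent isoindole after o-phthalaldehyde/DTT derivatization, ex 405 nm/em 535 nm. Human PAD4 at 5 nM final, 2 mM calcium, pH 7.6 MOPS; compound preincubated 30 min. IC50s, normalized to BB-Cl-Amidine and DMSO controls, were geometric-mean averaged.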

T1 sequence (Q9UM07 2-663): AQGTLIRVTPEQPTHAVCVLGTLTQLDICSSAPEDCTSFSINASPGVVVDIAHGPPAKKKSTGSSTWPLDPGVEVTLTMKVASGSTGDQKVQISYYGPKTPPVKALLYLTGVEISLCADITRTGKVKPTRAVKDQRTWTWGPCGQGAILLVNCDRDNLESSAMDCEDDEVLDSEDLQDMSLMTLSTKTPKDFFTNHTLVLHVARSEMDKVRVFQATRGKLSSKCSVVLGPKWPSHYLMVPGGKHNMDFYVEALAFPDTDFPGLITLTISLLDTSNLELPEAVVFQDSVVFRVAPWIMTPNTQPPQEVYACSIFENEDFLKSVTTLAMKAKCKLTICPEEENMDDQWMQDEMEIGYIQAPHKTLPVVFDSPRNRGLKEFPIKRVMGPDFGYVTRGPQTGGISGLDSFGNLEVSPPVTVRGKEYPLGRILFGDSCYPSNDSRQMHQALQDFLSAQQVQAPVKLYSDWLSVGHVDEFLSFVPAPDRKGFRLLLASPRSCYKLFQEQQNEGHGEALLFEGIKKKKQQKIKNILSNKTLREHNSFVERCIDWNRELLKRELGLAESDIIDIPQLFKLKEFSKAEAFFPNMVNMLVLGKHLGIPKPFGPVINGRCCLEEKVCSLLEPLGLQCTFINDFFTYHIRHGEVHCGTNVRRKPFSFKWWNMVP

`COc1cc(C(=O)N2C[C@@H]3C[C@@H]3[C@@H](N)C2)cc2nc(-c3cc4ccc5nc4n3CCCCCCC(C)(C)C(=O)N[C@@H]5C)n(C)c12` [Example 535, (11~{R})-17-[5-[(1~ {R},5~{R},6~{S})-5-amino-3-azabicyclo[4.1.0]heptane-3-carbonyl]-7-methoxy-1-methyl-benzimidazol-2-yl]-8,8,11-trimethyl-1,10,19-triazatricyclo[10.5.2.0^ {15,18}]nonadeca-12(19),13,15(18),16-tetraen-9-one]: the IC50 was 384 nM. Under `COc1cc(C(=O)N2C[C@H](N)[C@@H]3CC[C@H]2C3)cc2nc(-c3cc4ccc5nc4n3CCCCCC(C)(C)C(=O)N[C@@H]5C)n(C)c12` [Example 443, (10~{R})-16-[5-[(1~{S},4~{R},5~{})-4-amino-2-azabicyclo[3.2.1]octane-2-carbonyl]-7-methoxy-1-methyl-benzimidazol-2-yl]-7,7,10-trimethyl-1,9,18-triazatricyclo[9.5.2.0^{14,17}]octadeca-11(18),12,14(17),15-tetraen-8-one] stands 37 nM; under `C[C@H]1NC(=O)c2cnc(C(F)(F)F)cc2CCCCCn2c(-c3nc4cc(C(=O)N5C[C@H](N)[C@@H]6CC[C@H]5C6)cc(F)c4n3C3CC3)cc3ccc1nc32` [Example 844, (2~{R})-17-[5-[(1~{S},4~ {R},5~{R})-4-amino-2-azabicyclo [3.2.1]octane-2-carbonyl]-1-cyclopropyl-7-fluoro-benzimidazol-2-yl]-2-methyl-8-(trifluoromethyl)-3,7,16,22-tetrazatetracyclo[14.5.2.0^ {5,10).0^{19,23}]tricosa-1(22),5(10),6,8,17,19(23),20-heptaen-4-one], 35 nM. As for `COc1cc(C(=O)N2C[C@H](N)[C@@H]3CC[C@H]2C3)cc2nc(-c3cc4ccc5nc4n3CCCCCc3ccc(F)cc3C(=O)N[C@@H]5C)n(C3CC3)c12` [Example 953, (2~{R})-17-[5-[(1~{S},4~{R}, 5~{R})-4-amino-2-azabicyclo [3.2.1]octane-2-carbonyl]-1-cyclopropyl-7-methoxy-benzimidazol-2-yl]-7-fluoro-2-methyl-3,16,22-triazatetracyclo[14.5.2.0^ {5,10}.0^{19,23}]tricosa-1(22),5(10),6,8,17,19(23), 20-heptaen-4-one], the IC50 is 68 nM. Under `COc1cc(C(=O)N2CCC[C@@H](N)C2)cc2nc(-c3cc4ccc5nc4n3C[C@H]3C[C@H]3CC[C@@H]3C[C@H]3C(=O)N[C@@H]5C)n(C)c12` (single isomer, unassigned) [Example 115, (3˜{S},5˜{R},8˜{R},10˜{R},13˜{R})-19-[5-[(3˜{R})-3-aminopiperidine-1-carbonyl]-7-methoxy-1-methyl-benzimidazol-2-yl]-13-methyl-1,12,21-triazapentacyclo[12.5.2.0^{3,5}.0^{8,10}.0^{17,20}]henicosa-14(21),15,17(20),18-tetraen-11-one] stands 40 nM. Next, `COc1cc(C(=O)N2C[C@H](N)[C@@H]3CC[C@H]2C3)cc2nc(-c3cc4ccc5nc4n3CCCCCC[C@](F)(c3cccc(Cl)n3)C(=O)N[C@@H]5C)n(C)c12` [Example 888, (8~{S},11~{R})-17-[5-[(1~{S},4~{R},5~{R})-4-amino-2-azabicyclo[3.2.1]octane-2-carbonyl]-7-methoxy-1-methyl-benzimidazol-2-yl]-8-(6-chloro-2-pyridyl)-8-fluoro-11-methyl-1,10,19-triazatricyclo[10.5.2.0^ {15,18}]nonadeca-12(19), 13,15(18),16-tetraen-9-one]: 37 nM; `COc1cc(C(=O)N2C[C@H](N)[C@@H]3CC[C@H]2C3)cc2nc(-c3cc4ccc5nc4n3CCCCC[C@H]3[C@H](C(=O)N[C@@H]5C)C3(F)F)n(C3CC3)c12` [Example 930, (2~{R},5~{R},7~{S})-14-[5-[(1~{S},4~{R},5~{R})-4-amino-2-azabicyclo[3.2.1]octane-2-carbonyl]-1-cyclopropyl-7-methoxy-benzimidazol-2-yl]-6,6-difluoro-2-methyl-3,13,19-triazatetracyclo[11.5.2.0^ {5,7}.0^{16,20}]icosa-1(19), 14,16(20),17-tetraen-4-one]: 22 nM. Under `C[C@H]1NC(=O)c2c(F)cncc2CCCCCn2c(-c3nc4cc(C(=O)N5C[C@H](N)[C@@H]6CC[C@H]5C6)cc(F)c4n3C3CC3)cc3ccc1nc32` [Example 440, (2~{R})-17-[5-[(1~{S},4~{R},5~{R})-4-amino-2-azabicyclo[3.2.1]octane-2-carbonyl]-1-cyclopropyl-7-fluoro-benzimidazol-2-yl]-6-fluoro-2-methyl-3,8,16,22-tetrazatetracyclo[14.5.2.0^{5,10}.0^{19,23}] tricosa-1(22),5(10),6,8,17,19(23),20-heptaen-4-one] stands 27 nM. With `C[C@H]1NC(=O)[C@H]2[C@H](CCCC(F)(F)Cn3c(-c4nc5cc(C(=O)N[C@H]6CNCC[C@@H]6F)c(F)cc5n4C4CC4)cc4ccc1nc43)C2(F)F` [Example 391, 1-cyclopropyl-6-fluoro-~{N}-[(3~{S},4~{S})-4-fluoro-3-piperidyl]-2-[(2~{R},5~{R},7~{S})-6,6,11,11-tetrafluoro-2-methyl-4-oxo-3,13,19-triazatetracyclo[11.5.2.0^{5,7}.0^{16,20}]icosa-1(19),14,16(20),17-tetraen-14-yl]benzimidazole-5-carboxamide], the IC50 is 34 nM. Under `COc1cc(C(=O)N2CCC[C@@H](N)C2)cc2nc(-c3cc4ccc5nc4n3CCCCCCC3(CCC3)C(=O)N[C@@H]5C)n(C)c12` [Example 263, (11~{R})-17-[5-[(3~{R})-3-aminopiperidine-1-carbonyl]-7-methoxy-1-methyl-benzimidazol-2-yl]-11-methyl-spiro[1,10,19-triazatricyclo[10.5.2.0^{15,18}]nonadeca-12(19),13,15(18),16-tetraene-8,1′-cyclobutane]-9-one] stands 69 nM. As to `COc1cc(C(=O)N2[C@H]3CC[C@@H]2[C@H](N)C3)cc2nc(-c3cc4ccc5nc4n3CCCCCCCC3(CCC3)C(=O)N[C@@H]5C)n(C)c12` [Example 280], the half-maximal inhibitory concentration (IC50) is 64 nM. Next, `COc1cc(C(=O)N2CCC[C@@H](N)C2)cc2nc(-c3cc4ccc5nc4n3CCCCCCCCC(=O)N3CCC[C@H]53)n(C)c12` [Example 107, (2~{R})-17-[5-[(3~{R})-3-aminopiperidine-1-carbonyl]-7-methoxy-1-methyl-benzimidazol-2-yl]-6,16,22-triazatetracyclo[14.5.2.0^{2,6}.0^{19,23}] tricosa-1(22),17,19(23),20-tetraen-7-one]: 24 nM. Next, `COc1cc(C(=O)N2CCC[C@@H](N)C2)cc2nc(-c3cc4ccc5nc4n3CCCCOCC(=O)N3CCC[C@H]53)n(C)c12` [Example 109, (2~{R})-15-[5-[(3~{R})-3-aminopiperidine-1-carbonyl]-7-methoxy-1-methyl-benzimidazol-2-yl]-9-oxa-6,14,20-triazatetracyclo[12.5.2.0^{2,6}.0^{17,21}] henicosa-1(20),15,17(21),18-tetraen-7-one]: 303 nM; `COc1cc(C(=O)N[C@H]2CNCC[C@@H]2F)cc2nc(-c3cc4ccc5nc4n3C/C=C(/F)COCCC(=O)N[C@@H]5C)n(C)c12` [Example 619, 2-[(3~{E},11~{R})-4-fluoro-11-methyl-9-oxo-6-oxa-1,10,19-triazatricyclo[10.5.2.0^ {15,18}]nonadeca-3,12(19),13,15(18), 16-pentaen-17-yl]- ~{N}-[(3~{S},4~{S})-4-fluoro-3-piperidyl]-7-methoxy-1-methyl-benzimidazole-5-carboxamide]: 38 nM; `CO[C@H]1C[C@@H]1n1c(-c2cc3ccc4nc3n2CC(F)(F)CCC[C@@H]2C[C@H]2C(=O)N[C@@H]4C)nc2cc(C(=O)N3C[C@H]4CC[C@@H]3[C@@H]4N)cc(F)c21` [Example 804, (2~{R},5~{R},7~{R})-14-[5-[(1~{R},4~{R},7~{R})-7-amino-2-azabicyclo[2.2.1]heptane-2-carbonyl]-7-fluoro-1-[(1~{S},2~{S})-2-methoxycyclopropyl]benzimidazol-2-yl]-11,11-difluoro-2-methyl-3,13,19-triazatetracyclo[11.5.2.0^ {5,7}.0^{16,20}]icosa-1(18),14,16,19-tetraen-4-one]: 27 nM. Under `CO[C@@H]1CCN(C(=O)c2cc3nc(-c4cc5ccc6nc5n4CCCCC[C@@H]4C[C@H]4C(=O)N[C@@H]6C)n([C@H]4C[C@H]4F)c3cc2F)C[C@@H]1N` [Example 827, (2~{R},5~{R},7~{R})-14-[5-[(3~{S},4~{R})-3-amino-4-methoxy-piperidine-1-carbonyl]-6-fluoro-1-[(1~{S},2~{R})-2-fluorocyclopropyl]benzimidazol-2-yl]-2-methyl-3,13,19-triazatetracyclo[11.5.2.0^ {5,7}.0^{16,20}]icosa-1(19),14,16(20),17-tetraen-4-one] stands 36 nM; under `COc1cc(C(=O)N2CCC[C@@H](N)C2)cc2nc(-c3cc4ccc5cc4n3CCC/C=C/CC(C)(C)C(=O)N[C@@H]5C)n(C)c12` [Example 273, (5˜{E},11˜{R})-17-[5-[(3˜{R})-3-aminopiperidine-1-carbonyl]-7-methoxy-1-methyl-benzimidazol-2-yl]-8,8,11-trimethyl-1,10-diazatricyclo[10.5.2.0^{15,18}]nonadeca-5,12(19),13,15(18),16-pentaen-9-one], 68 nM. Regarding `COc1cc(C(=O)N2C[C@H](N)[C@@H]3CC[C@H]2C3)cc2nc(-c3cc4ccc5cc4n3CCCCCCC(C)(C)C(=O)N[C@@H]5C)n(C)c12` [Example 465, (11~{R})-17-[5-[(1~{S},4~{R},5~{R})-4-amino-2-azabicyclo[3.2.1]octane-2-carbonyl]-7-methoxy-1-methyl-benzimidazol-2-yl]-8,8,11-trimethyl-1,10-diazatricyclo[10.5.2.0^{15,18}]nonadeca-12(19),13,15(18),16-tetraen-9-one], the IC50 came out at 23 nM.
